Measurements from patent US9290459B1, “Substituted bicyclic dihydropyrimidinones and their use as inhibitors of neutrophil elastase activity” (Boehringer Ingelheim International GmbH, priority 2013, dated 2016).
Values after ≈ are worked out from the molar mass of the structure shown. Where two headings read alike, the source gives them in different places.

Assays:
[1] = Aqueous solubility; type: physicochemical; settings: McIlvaine buffer pH 6.8, 2.5% DMSO, 24 h shaking; for solubility at 24 h: McIlvaine buffer pH 6.8 with 2.5% DMSO, pH 6.8, aqueous buffer, kinetic from dmso stock
Method: Assay for Determination of Aqueous Solubility […] After 24 h of shaking, the solutions or suspensions are filtered and analyzed by LC-UV. The amount dissolved in buffer is compared to the amount dissolved in the acetonitrile/water (1/1) solution.

[2] = system: human hepatocytes; assay: Metabolic stability with human hepatocytes; type: in vitro ADME; settings: human hepatocyte suspension, 1 μM test compound, scaled with well stirred model
Method: Assay for the Determination of Metabolic Stability with Human Hepatocytes The metabolic degradation of the test compound is assayed in a human hepatocyte suspension. Human hepatocytes (typically cryopreserved) are incubated in an appropriate buffer system (e.g. […] Samples are transferred into acetonitrile and pelleted by centrifugation (5 min) The supernatant is transferred to a new 96-deepwell plate, evaporated under nitrogen and resuspended. The decline of parent compound is analyzed by LC-MS/MS.

[3] = target: Human neutrophil elastase (Homo sapiens (Human), UniProt P08246); assay: Human Neutrophil Elastase Assay; type: biochemical; settings: substrate MeOSuc-Ala-Ala-Pro-Val-AMC 250 μM, pH 7.5
Human neutrophil elastase, sequence (P08246 30-247): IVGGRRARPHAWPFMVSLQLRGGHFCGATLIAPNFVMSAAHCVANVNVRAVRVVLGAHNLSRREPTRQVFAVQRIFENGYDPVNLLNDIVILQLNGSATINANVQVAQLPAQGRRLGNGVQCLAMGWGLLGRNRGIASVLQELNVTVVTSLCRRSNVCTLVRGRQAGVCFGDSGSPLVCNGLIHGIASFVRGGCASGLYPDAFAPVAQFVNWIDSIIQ

[4] = target: neutrophil elastase in human plasma (Homo sapiens (Human), UniProt P08246); assay: Neutrophil elastase inhibitory activity in human plasma (zymosan-stimulated blood); type: biochemical
neutrophil elastase in human plasma, sequence (P08246 30-247): as above

[5] = Drug transport across human Caco-2 cells; type: in vitro ADME; settings: human; for Papp A→B at 10 µM / Papp B→A at 10 µM: Caco-2, pH 7.2, Caco-2 monolayers, pH 7.2, 37° C.; for Papp A→B at 10 µM: apical-to-basal, read-out: PEAB; for Papp B→A at 10 µM: basal-to-apical, read-out: PEBA; for efflux ratio at 10 μM: Caco-2, pH 7.2, PEBA/PEAB, Caco-2
[6] = Metabolic stability with human liver microsomes; type: in vitro ADME; settings: for half-life at 1 μM: human, microsomes, pH 7.6; for t1/2 INVITRO: pooled human liver microsomes, 1 mg/ml protein, 1 μM test compound, 37° C., NADPH
[7] = system: Caco-2 cells; assay: Drug transport across human Caco-2 cells; type: in vitro ADME; settings: for PEAB / PEBA: Caco-2 monolayers, pH 7.2, 37° C.; for PEAB: apical-to-basal; for PEBA: basal-to-apical; for Efflux ratio: PEBA/PEAB, Caco-2
[8] = human neutrophil elastase, read-out: IC50
[9] = neutrophil elastase enriched human plasma from zymosan-stimulated blood, read-out: EC50

solubility at 24 h [1] [µg/mL] | CL (predicted human hepatic in vivo blood clearance) [2] [mL/min/kg] | IC50 [3, 8] [nM] | Papp A→B at 10 µM [5] [×10⁻⁶ cm/s] | Papp B→A at 10 µM [5] [×10⁻⁶ cm/s] | half-life at 1 μM [6] [h] | Compound | further results
34 (≈ 62.9 µM) | 0 | – | – | – | – | CS(=O)(=O)c1cc(C#N)ccc1C1C2=C(CCC2=O)N(c2cccc(C(F)F)c2)C(=O)N1C(=O)NC1CC1 (stereo not drawn) [Example 53.3] | –
41 (≈ 90 µM) | 1 | 4 | 66.7 | 66.1 | – | CNC(=O)N1C(=O)N(c2cccc(C(F)(F)F)c2)C2=C(C(=O)CC2)C1c1ccc(C#N)cn1 (stereo not drawn) [Example 50.1] | EC50 [4, 9]: 16 nM; efflux ratio at 10 μM [5]: 1
88 (≈ 183 µM) | 8 | < 1 | – | – | > 2.17 | N#Cc1ccc([C@@H]2C3=C(CCC3=O)N(c3cccc(C(F)F)c3)C(=O)N2C(=O)NCCCO)cc1 [Example 52A, (R)-4-(4-Cyanophenyl)-1-(3-(difluoromethyl)phenyl)-N-(3-hydroxypropyl)-2,5-dioxo-4,5,6,7-tetrahydro-1H-cyclopenta[d]pyrimidine-3(2H)-carboxamide] | EC50 [4, 9]: < 1 nM
23 (≈ 50.6 µM) | 3 | – | 72.7 | 68.1 | > 2.17 | CNC(=O)N1C(=O)N(c2cccc(C(F)(F)F)c2)C2=C(C(=O)CC2)[C@H]1c1ccc(C#N)cc1 [Example 7.1A, (R)-4-(4-Cyanophenyl)-N-methyl-2,5-dioxo-1-(3-(trifluoromethyl)phenyl)-4,5,6,7-tetrahydro-1H-cyclopenta[d]pyrimidine-3(2H)-carboxamide] | –
– | – | – | – | – | – | CN1C(=O)N(c2cccc(C(F)(F)F)c2)C2=C(C(=O)CC2)C1c1ccc(C#N)cc1[S+](C)[O-] (single isomer, unassigned) [Example 30A, 4-(3-Methyl-2,5-dioxo-1-(3-(trifluoromethyl)phenyl)-2,3,4,5,6,7-hexahydro-1H-cyclopenta[d]pyrimidin-4-yl)-3-(methylsulfinyl)benzonitrile] | Aqueous solubility [1]: 51 µg/mL; IC50 ([3]; IC50, human neutrophil elastase): 1.3 nM; EC50 ([4]; EC50, neutrophil elastase enriched human plasma from zymosan-stimulated blood): 1 nM; PEAB [7]: 3.52 ×10⁻⁶ cm/s; PEBA [7]: 39 ×10⁻⁶ cm/s; Efflux ratio [7]: 11.1; t1/2 INVITRO [6]: >2.17 h
21 (≈ 40 µM) | 0 | – | 39.7 | 78 | > 2.17 | N#Cc1ccc(C2C3=C(CCC3=O)N(c3cccc(C(F)(F)F)c3)C(=O)N2C(=O)N[C@H]2CCC[C@@H]2O)cc1 (stereo partly drawn) [Example 42.4] | efflux ratio at 10 μM [5]: 2
– | – | – | – | – | – | N#Cc1ccc(C2C3=C(CCC3=O)N(c3cccc(C(F)(F)F)c3)C(=O)N2C(=O)NC2(CO)CC2)cc1 (stereo not drawn) [Example 41.5] | Aqueous solubility [1]: 82 µg/mL; PEAB [7]: 8.85 ×10⁻⁶ cm/s; PEBA [7]: 77 ×10⁻⁶ cm/s; Efflux ratio [7]: 8.7
– | 4 | – | – | – | – | N#Cc1ccc(C2C3=C(CCC3=O)N(c3cccc(C(F)(F)F)c3)C(=O)N2CC(=O)N2CCC2)cc1 (stereo not drawn) [Example 6.3] | Aqueous solubility [1]: 121 µg/mL; t1/2 INVITRO [6]: >2.17 h
14 (≈ 25.8 µM) | 0 | – | 9.85 | 94.4 | > 2.17 | CC(C)NC(=O)N1C(=O)N(c2cccc(C(F)F)c2)C2=C(C(=O)CC2)C1c1ccc(C#N)cc1S(C)(=O)=O (stereo not drawn) [Example 53.4] | –
56 (≈ 106 µM) | 0 | – | – | – | > 2.17 | N#Cc1ccc([C@@H]2C3=C(CCC3=O)N(c3cccc(C(F)(F)F)c3)C(=O)N2C(=O)N[C@H]2COC[C@@H]2O)cc1 [Example 45.5] | –
– | – | – | – | – | – | N#Cc1ccc(C2C3=C(CCC3=O)N(c3cccc(C(F)(F)F)c3)C(=O)N2C(=O)NC2CCOCC2)cc1 (stereo not drawn) [Example 41.16] | PEAB [7]: 58.9 ×10⁻⁶ cm/s; PEBA [7]: 57.7 ×10⁻⁶ cm/s; Efflux ratio [7]: 1.0; t1/2 INVITRO [6]: >2.17 h
32 (≈ 56.7 µM) | 0 | – | – | – | > 2.17 | CS(=O)(=O)CCNC(=O)N1C(=O)N(c2cccc(C(F)(F)F)c2)C2=C(C(=O)CC2)C1c1ccc(C#N)cc1F (stereo not drawn) [Example 49.3] | –
43 (≈ 80.6 µM) | – | < 1 | 9.08 | 71.2 | > 2.17 | COC(=O)N1C(=O)N(c2cccc(C(F)(F)F)c2)C2=C(C(=O)CC2)[C@H]1c1ccc(C#N)cc1S(C)(=O)=O [Example 33, (S)-Methyl 4-(4-cyano-2-(methylsulfonyl)phenyl)-2,5-dioxo-1-(3-(trifluoromethyl)-phenyl)-4,5,6,7-tetrahydro-1H-cyclopenta[d]pyrimidine-3(2H)-carboxylate] | EC50 [4, 9]: < 1 nM; efflux ratio at 10 μM [5]: 7.8
– | 6 | – | – | – | – | CN(C)C(=O)CN1C(=O)N(c2cccc(C(F)(F)F)c2)C2=C(C(=O)CC2)C1c1ccc(C#N)cc1 (stereo not drawn) [Example 6.2] | Aqueous solubility [1]: 77 µg/mL
16 (≈ 35.5 µM) | 3 | < 1 | 70.8 | 80.3 | > 2.17 | CCNC(=O)N1C(=O)N(c2cccc(C(F)F)c2)C2=C(C(=O)CC2)C1c1ccc(C#N)cc1 (stereo not drawn) [Example 52.2] | EC50 [4, 9]: 1 nM; efflux ratio at 10 μM [5]: 1.1
62 (≈ 127 µM) | 2 | < 1 | 56.7 | 74 | > 2.17 | CN1C(=O)N(c2cccc(C(F)(F)F)c2)C2=C(C(=O)CC2)[C@H]1c1ccc(C#N)cc1S(C)(=O)=O [Example 25, (S)-4-(3-Methyl-2,5-dioxo-1-(3-(trifluoromethyl)phenyl)-2,3,4,5,6,7-hexahydro-1H-cyclopenta[d]pyrimidin-4-yl)-3-(methylsulfonyl)benzonitrile] | EC50 [4, 9]: 1 nM; efflux ratio at 10 μM [5]: 1.3
67 (≈ 127 µM) | 5 | – | – | – | – | N#Cc1ccc(C2C3=C(CCC3=O)N(c3cccc(C(F)(F)F)c3)C(=O)N2C(=O)N[C@H]2COC[C@H]2O)cc1 (stereo partly drawn) [Example 42.6] | –
72 (≈ 149 µM) | 0 | – | 4.03 | 63.3 | > 2.17 | N#Cc1ccc([C@@H]2C3=C(CCC3=O)N(c3cccc(C(F)(F)F)c3)C(=O)N2C(=O)NCCO)cc1 [Example 7.2A, (R)-4-(4-Cyanophenyl)-N-(2-hydroxyethyl)-2,5-dioxo-1-(3-(trifluoromethyl)phenyl)-4,5,6,7-tetrahydro-1H-cyclopenta[d]pyrimidine-3(2H)-carboxamide] | –

Compound | solubility at 24 h [1] [µg/mL] | CL (predicted human hepatic in vivo blood clearance) [2] [mL/min/kg] | IC50 [3, 8] [nM] | Papp A→B at 10 µM [5] [×10⁻⁶ cm/s] | Papp B→A at 10 µM [5] [×10⁻⁶ cm/s] | half-life at 1 μM [6] [h] | further results
CS(=O)(=O)c1cc(C#N)ccc1C1NC(=O)N(c2cccc(C(F)F)c2)C2=C1C(=O)CC2 (stereo not drawn) [Example 15.4, 4-(1-(3-(difluoromethyl)phenyl)-2,5-dioxo-2,3,4,5,6,7-hexahydro-1H-cyclopenta[d]pyrimidin-4-yl)-3-(methylsulfonyl)benzonitrile] | 69 (≈ 151 µM) | 0 | 9.7 | – | – | > 2.17 | –
CS(=O)(=O)c1cc(C#N)ccc1[C@@H]1C2=C(CCC2=O)N(c2cccc(C(F)(F)F)c2)C(=O)N1CC#N [Example 23, (S)-4-(3-(Cyanomethyl)-2,5-dioxo-1-(3-(trifluoromethyl)phenyl)-2,3,4,5,6,7-hexahydro-1H-cyclopenta[d]pyrimidin-4-yl)-3-(methylsulfonyl)benzonitrile] | 15 (≈ 29.2 µM) | 0 | 3.4 | 10.3 | 93.5 | > 2.17 | EC50 [4, 9]: < 1 nM; efflux ratio at 10 μM [5]: 9.1
CCS(=O)(=O)c1cc(C#N)ccc1C1NC(=O)N(c2cccc(C(F)(F)F)c2)C2=C1C(=O)CC2 (stereo not drawn) [Example 14, 4-(2,5-Dioxo-1-(3-(trifluoromethyl)phenyl)-2,3,4,5,6,7-hexahydro-1H-cyclopenta[d]pyrimidin-4-yl)-3-(ethylsulfonyl)benzonitrile] | 45 (≈ 91.9 µM) | 4 | 4.7 | – | – | > 2.17 | –
